Data as given in patent US20080119558A1, “Drug for Inhibiting Production of Matrix Metalloprotease-9” (Japan Science And Technology Agency, priority 2002, published 2008).

What was measured:
MMP-9 = assay: Detection of MMP-2 and MMP-9 by gelatin zymography in conditioned media of cultured human foreskin keratinocytes; format: cell-based; details: HFKs; for concentration of LMB in the medium at which the production of MMP-9 is inhibited: 24 hours
Protocol: A foreskin of a neonate was treated at 4° C. for 16 hours by a disperse having a casein decomposition activity of 25.0 caseinolytic units/ml. Epidermal was peeled from dermis using a forceps, then, the epidermal was treated with 0.05% trypsin for 5 minutes. The separated human foreskin keratinocytes (HFKs) were allowed to incubate at 37° C. in a plate having a keratinocyte-SFM medium (manufactured by Invitrogen), and sub-cultured over three generations. Then, into four plates obtained by sub-culturing human foreskin keratinocytes (HFKs) over three generations, LMB was added so that the concentrations in the medium were 0 nM, 0.4 nM, 2 nM and 10 nM, respectively, further, allowed to incubate at 37° C. for 24 hours. Then, four conditioned media of the keratinocyte-SFM medium were collected from the four plates, and stored at −30° C. until use in the following detection of MMP-2 and MMP-9 by a gelatin zymography method.
Prior to detection of MMP-2 and MMP-9 by a gelatin zymography method, four conditioned media collected in <Culturing of human epidermal keratinocyte cell> were all allowed to incubate at 35° C. for 1 hour. Then, the above-mentioned conditioned media were dissolved in a solution of pH 7.4 containing 0.05 M Tris-HCl, 5 mM CaCl2, 1% SDS (sodium dodecyl-sulfate) and 5% glycerol, respectively, and the solutions were used as samples for a gelatin zymography method. MMP-2 and MMP-9 were separated from the samples by an SDS-PAGE method using 7.5% polyacrylamide gel containing 0.5% gelatin. After separation by an SDS-PAGE method, the separated gel was washed with a solution containing 2.5% Triton X-100 for 1 hour, to remove SDS. For allowing MMP-2 and MMP-9 separated in the separated gel to decompose gelatin in the separated gel, the separated gel was allowed to incubate at 35° C. for a given time in a buffer solution for reaction (standard conditions: 0.05 M Tris-HCl (pH 7.4)/0.15 M NaCl/5 MM CaCl2/0.02% NaN3). Staining of the separated gel was conducted using a staining solution containing 0.1% Amideblack B-10, and decolorization was conducted using a decolorization solution containing 10 vol % of acetic acid and 30 vol % of methanol.
(§1) Culturing of a human epidermal keratinocyte and detection of MMP-2 and MMP-9 by a gelatin zymography method were conducted by the same manner as in Example 1 except that LMB was added into four plates obtained by sub-culturing human foreskin keratinocytes (HFKS) over three generations, so that the concentrations in the medium were 0 nM, 0.4 nM, 2 nM and 10 nM, respectively, and a calcium chloride aqueous solution was added so that the four concentrations of Ca^+ in the medium were all 1.5 mM, instead of adding LMB into four plates obtained by sub-culturing human foreskin keratinocytes (HFKs) over three generations, so that the concentrations in the medium were 0 nM, 0.4 nM, 2 nM and 10 nM, respectively, in culturing of human epidermal keratinocyte.
as §1, with “(HFKs)” for “(HFKS)”, “TGF-β” for “a calcium chloride aqueous solution”, “TGF-β” for “Ca^+”, “1 ng/ml,” for “1.5 mM,”, “keratinocytes. […]” for “keratinocyte.”

mRNA of human MMP-9 gene = assay: Detection of mRNA of human MMP-9 gene and human GAPDH gene by RT-PCR in human foreskin keratinocytes; format: cell-based; details: 10 nM LMB
Protocol: A foreskin of a neonate was treated at 4° C. for 16 hours by a disperse having a casein decomposition activity of 25.0 caseinolytic units/ml. Epidermal was peeled from dermis using a forceps, then, the epidermal was treated with 0.05% trypsin for 5 minutes. The separated human foreskin keratinocytes (HFKs) were allowed to incubate at 37° C. in a plate having a keratinocyte-SFM medium (manufactured by Invitrogen), and sub-cultured over three generations. Then, into two plates obtained by sub-culturing human foreskin keratinocytes (HFKS) over three generations, LMB was added so that the concentrations in the medium were 0 nM and 10 nM, respectively, further, allowed to incubate at 37° C. for 24 hours.
Extraction of all RNAs from cultured human foreskin keratinocytes (HFKs) was conducted according to a method of Wachi et al. (Wachi et al. (1995) FEBS Lett. 36B, 215-219), and the extracted all RNAs were stored at −80° C. in the form of solution having a concentration of 1 μg/ml. A RT-PCR method was conducted using TaKaRa RNA PCR kit (manufactured by TaKaRa). For amplifying 277 base pairs of cDNA for human MMP-9, a sense primer (SEQ ID No. 1) was used for the 5′ end situated at 116 to 136 base pairs, and an antisense primer (SEQ ID No. 2) was used for the 3′ end situated at 372 to 392 base pairs. For amplifying 478 base pairs of cDNA for human GAPDH, a sense primer (SEQ ID No. 3) was used for the 5′ end situated at 547 to 566 base pairs, and an antisense primer (SEQ ID No. 4) was used for the 3′ end situated at 1005 to 1024 base pairs. Reverse transcription of RNA was conducted by incubating at 42° C. for 1 hour. Incubation in PCR of cDNA obtained by reverse transcription was conducted according to the following temperature profile. Namely, for every one cycle, modification of cDNA was conducted at 94° C. for 2 minutes, annealing of a primer was conducted at 60° C. for 30 seconds, and synthesis of a DNA chain by a DNA polymerase was conducted at 72° C. for 1 minute. A solution obtained after 30 cycles was separated, and electrophoresis was conducted using an agarose gel containing ethidium bromide, and the resulted band was observed under ultraviolet ray.
Culturing of a human epidermal keratinocyte and detection of mRNA of a human MMP-9 gene and mRNA of a human GAPDH gene by a RT-PCR method were conducted by the same manner as in Example 6 except that LMB was added into two plates obtained by sub-culturing human foreskin keratinocytes (HFKs) over three generations, so that the concentrations in the medium were 0 nM and 10 nM, respectively, and a calcium chloride aqueous solution was added so that the two concentrations of Ca^+ in the medium were all 1.5 mM, instead of adding LMB into two plates obtained by sub-culturing human foreskin keratinocytes (HFKs) over three generations, so that the concentrations in the medium were 0 nM and 10 nM, respectively, in culturing of human epidermal keratinocytes. […]

MMP-9 promoter sequence = assay: Measurement of MMP-9 promoter transcription activity by luciferase assay in human foreskin keratinocytes; format: cell-based; details: 10 nM LMB; for transcription activity of MMP-9: 24 hours; for Promoter activity suppressed to (fraction of no LMB addition): vector-1 containing KRE-M9 (−73 to +16)
Protocol: A foreskin of a neonate was treated at 4° C. for 16 hours by a disperse having a casein decomposition activity of 25.0 caseinolytic units/ml. Epidermal was peeled from dermis using a forceps, then, the epidermal was treated with 0.05% trypsin for 5 minutes. The separated human foreskin keratinocytes (HFKs) were allowed to incubate at 37° C. in a 24-well plate having a keratinocyte-SFM medium (manufactured by Life Technologies) containing 0.09 mM Ca^+, and sub-cultured over three generations.
A −73 to +16 base sequence containing KRE-M9 of an MMP-9 promoter sequence and a −56 to +16 base sequence containing no KRE-M9 were inserted into pGL3-basic vector (manufactured by Promega) which is a luciferase expression vector containing a luciferase gene according to a method of Kobayashi et al. (Kobayashi et al. (2001) EMBO Rep. 2, 604 to 608), to prepare vector-1 and vector-2.
Using the vector-1 and vector-2 and Fugene 6 (manufactured by Roche) which is a reagent for gene introduction, a vector-1 solution and a vector-2 solution each having a DNA concentration of 3 μg/1 ml were prepared, respectively. Then, the vector solution 1 was added to solutions in 12 wells and the vector solution 2 was added to solutions in the remaining 12 wells each at 37° C., of HFKs culture solutions in the 24-well plates obtained in <Culturing of human epidermal keratinocyte> and gene introduction was performed, further, 10 nM LMB was added to solutions in 6 wells to give a 6-well LMB added plate 1 and LMB was not added to solutions in the remaining 6 wells to give a 6-well LMB no-addition plate 1, of the 12 wells obtained by addition of the vector-1 solution, and 10 nM LMB was added to solutions in 6 wells to give a 6-well LMB added plate 2 and LMB was not added to solutions in the remaining 6 wells to give a 6-well LMB no-addition plate 2, of the 12 wells obtained by addition of the vector-2 solution, then, they were allowed to stand still for 3 hours. Gene introduction of a luciferase gene effected as described above induces the production of MMP-9 and the production of luciferase, and by measuring the light emitting intensity in a light emitting reaction by luciferase by a micro press counter, the production of MMP-9 can be monitored.
Measurement of the transcription activity was conducted by a luciferase assay. The activity of luciferase was measured by Luciferase assay system (manufactured by Promega). As a micro press counter, Microbeta (manufactured by Perkin-Elmer) was used. In this measurement, the total transcription activity after 12 hours was measured using 3 wells among 6 wells, further, the total transcription activity after 24 hours was measured using the remaining 3 wells, each using the 6-well LMB added plate 1, 6-well LMB no-addition plate 1, 6-well LMB added plate 2 and 6-well LMB no-addition plate 2. […] The standard deviation is shown by error bar. […]

[1] = system: skin of hairless mice (Hoes: HR-1); assay: Ultraviolet B irradiated hairless mouse skin, external application, histology (hematoxylin and eosin); format: in vivo
Protocol: Ten 8-weeks old female hairless mice (Hoes: HR-1) were previously bred for 1 week. Five mice (mouse A1, mouse B1, mouse C1, mouse D1, mouse E1) were irradiated at the back with ultraviolet B (UV) of 300 mJ (about 3 MED (minimal erythema dose)), and five mice (mouse A2, mouse B2, mouse C2, mouse D2, mouse E2) were not irradiated with ultraviolet ray. Immediately after irradiation with ultraviolet ray and 24 hours after irradiation with ultraviolet ray, leptomycin B was administered by externally applying a solution of a concentration of 10 μg/ml (20 μM) to mouse B1 and mouse B2, a solution of a concentration of 1 μg/ml (2 μM) to mouse C1 and mouse C2, a solution of a concentration of 100 ng/ml (200 nM) to mouse D1 and mouse D2 and a solution of a concentration of 10 ng/ml (20 nM) to mouse E1 and mouse E2, each in an amount of 0.1 ml by a brush, as a solution containing leptomycin B dissolved in 70% ethanol. To mouse A1 and mouse A2, about 0.1 ml of 70% ethanol was applied by a brush. Then, skins were collected from mouse A1 to mouse E1 irradiated with ultraviolet ray 48 hours after irradiation and mouse A2 to mouse E2 not irradiated with ultraviolet ray. The collected skins were fixed with formalin and embedded in paraffin, then, the slices were stained with hematoxylin and eosin. Slices of skins collected from mouse A1, mouse B1, mouse C1, mouse D1 and mouse E1 and stained and slices of skins collected from mouse A2, mouse B2, mouse C2, mouse D2 and mouse E2 and stained were observed by ECLIPSE E1000M optical microscope (manufactured by NIKON), and the results are shown in FIG. 5. In FIG. 5, A1 to E1 correspond to slices of skins collected from mouse A1 to mouse E1 and stained, respectively, and A2 to E2 correspond to slices of skins collected from mouse A2 to mouse E2 and stained, respectively, and the length of a bar indicates 100 μm.

[2] = system: P388 cell, Lewis Landa carcinoma cell, B16 melanoma cell, Erich carcinoma cell; details: tumor cells transplanted to mouse; anti-tumor agent containing leptomycin B, parenteral or oral; cited from earlier work
[3] = UVB 300 mJ irradiated mice B1 to E1, external application 10 μg/ml to 10 ng/ml in 70% ethanol, 0.1 ml, at 0 and 24 hours, skin at 48 hours

CCC(=C/[C@H](C)C/C=C/C(C)=C/[C@@H](C)C(=O)[C@@H](C)[C@H](O)[C@@H](C)C/C(C)=C/C(=O)O)/C=C/[C@@H]1OC(=O)C=C[C@@H]1C [LMB, Leptomycin B]
specificity of inhibition of the production of MMP-9 as compared with MMP-2 (MMP-9; gelatin zymography, FIG. 1): inhibits the production of MMP-9 more specifically as compared with MMP-2 | concentration of LMB in the medium at which the production of MMP-9 is inhibited (MMP-9; stimulating differentiation by TGF-β 1 ng/ml, FIG. 1 (C)): ≥ 2 nM | concentration of LMB in the medium at which the production of MMP-9 is inhibited (MMP-9; stimulating differentiation by calcium at a high concentration (1.5 mM), FIG. 1 (B)): ≥ 2 nM | concentration of LMB in the medium at which the production of MMP-9 is inhibited (MMP-9; stimulating inflammation by IL-1α 10^−10 M, FIG. 1 (E)): ≥ 2 nM | concentration of LMB in the medium at which the production of MMP-9 is inhibited (MMP-9; stimulating inflammation by TNF-α 10 ng/ml, FIG. 1 (D)): ≥ 2 nM | concentration of LMB in the medium at which the production of MMP-9 is inhibited (MMP-9; under no stimulation, FIG. 1 (A)): ≥ 2 nM | production of MMP-9 (mRNA) as compared with GAPDH (mRNA of human MMP-9 gene; stimulation with IL-1α 10^−10 M, Sample 9 and 10 in FIG. 2): inhibited | production of MMP-9 (mRNA) as compared with GAPDH (mRNA of human MMP-9 gene; stimulation with TGF-β 1 ng/ml, Sample 5 and 6 in FIG. 2): inhibited | production of MMP-9 (mRNA) as compared with GAPDH (mRNA of human MMP-9 gene; stimulation with TNF-α 10 ng/ml, Sample 7 and 8 in FIG. 2): inhibited | production of MMP-9 (mRNA) as compared with GAPDH (mRNA of human MMP-9 gene; stimulation with calcium at a high concentration (1.5 mM), Sample 3 and 4 in FIG. 2): inhibited | production of MMP-9 (mRNA) as compared with GAPDH (mRNA of human MMP-9 gene; under no stimulation, 24 hours, Sample 1 and 2 in FIG. 2): inhibited | transcription activity of MMP-9 (MMP-9 promoter sequence; base sequence 1 (−80 to +16, KRE-M9 and TRE), FIG. 4 (A)): suppressed | transcription activity of MMP-9 (MMP-9 promoter sequence; base sequence 2 (4-base substitution of KRE-M9 in base sequence 1), FIG. 4 (A)): suppressed | transcription activity of MMP-9 (MMP-9 promoter sequence; base sequence 6 (base substitution of both KRE-M9 and TRE), FIG. 4 (B)): suppressed | Promoter activity suppressed to (fraction of no LMB addition) (MMP-9 promoter sequence; 12 hours after gene introduction): about one-fifth | Promoter activity suppressed to (fraction of no LMB addition) (MMP-9 promoter sequence; 24 hours after gene introduction): about one-seventh | inflammatory cell infiltration in dermis and subcutaneous tissue [1, 3]: suppressed | keratinization of epidermal [1, 3]: normal keratinization is manifested in epidermal in a concentration-dependent manner | change of skin not irradiated with ultraviolet ray ([1]; mice B2 to E2 not irradiated, external application 10 μg/ml to 10 ng/ml in 70% ethanol): significant change was not found | anti-tumor action [2]: strong anti-tumor action
